# Molecular target: T1, human SCD1 (hSCD-1) (Homo sapiens, UniProt O00767)
# T1 construct: made in house; host or cells: baculovirus/Sf9 insect cells
# T1 sequence (O00767 1-359): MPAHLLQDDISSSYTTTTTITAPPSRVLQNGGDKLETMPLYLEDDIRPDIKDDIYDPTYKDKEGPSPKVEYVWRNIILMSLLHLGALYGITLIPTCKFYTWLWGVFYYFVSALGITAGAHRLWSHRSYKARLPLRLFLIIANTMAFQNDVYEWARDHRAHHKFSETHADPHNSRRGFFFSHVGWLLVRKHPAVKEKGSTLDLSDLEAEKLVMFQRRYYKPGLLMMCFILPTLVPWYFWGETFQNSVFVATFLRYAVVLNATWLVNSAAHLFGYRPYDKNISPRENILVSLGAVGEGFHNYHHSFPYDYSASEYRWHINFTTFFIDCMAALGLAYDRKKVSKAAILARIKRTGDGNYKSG
# Assay: SCD enzyme activity assay, reconstituted human SCD1 (conversion of radiolabeled stearoyl-CoA to oleoyl-CoA)
# Type: biochemical
# Conditions: human SCD-1
# Description: The potency of compounds of formula I against the stearoyl-CoA desaturase was determined by measuring the conversion of radiolabeled stearoyl-CoA to oleoyl-CoA using rat liver microsome or human SCD1 (hSCD-1) following previously published procedures with some modifications (Joshi, et al., J. Lipid Res., 18: 32-36 (1977); Talamo, et al., Anal. Biochem, 29: 300-304 (1969)). Liver microsome was prepared from male Wistar or Sprague Dawley rats on a high carbohydrate diet for 3 days (LabDiet # 5803, Purina). The livers were homogenized (1:10 w/v) in a buffer containing 250 mM sucrose, 1 mM EDTA, 5 mM DTT and 50 mM Tris-HCl (pH 7.5). After a 100,000×g centrifugation for 60 min, the liver microsome pellet was suspended in a buffer containing 100 mM sodium phosphate, 20% glycerol, 2 mM DTT, and stored at −78° C. Human SCD1 desaturase system was reconstituted using human SCD1 from a baculovirus/Sf9 expression system, cytochrome B5 and cytochrome B5 reductase. Typically, test compound in 2 μL DMSO was incubated for 15 min at room temperature with 180 μL of the SCD enzyme in a buffer containing 100 mM Tris-HCl (pH 7.5), ATP (5 mM), Coenzyme-A (0.1 mM), Triton X-100 (0.5 mM) and NADH (2 mM). The reaction was initiated by the addition of 20 μL of [^3H]-stearoyl-CoA (final concentration=2 μM, radioactivity concentration=1 μCi/mL). After 10 min, the reaction mixture (80 μL) was mixed with a calcium chloride/charcoal aqueous suspension (100 μl, charcoal (10% w/v) plus 25 μL CaCl2 (2N). After centrifugation to precipitate the radioactive fatty acid species, tritiated water released from 9,10-[^3H]-stearoyl-CoA by the SCD enzyme was quantified on a scintillation counter.
row,Structure (SMILES),IC50 [nM]
1,O=C(O)Cn1nnc(-c2cc(N3CCC(C(=O)c4cc(Cl)ccc4Cl)CC3)no2)n1,31
2,Cc1ccc(Cl)c(C(=O)C2CCN(c3cc(-c4nnn(CC(=O)O)n4)on3)CC2)c1,79
3,O=C(O)Cn1nnc(-c2cnc(N3CCCN(c4ccccc4C(F)(F)F)CC3)s2)n1,30
4,CCC(C)c1ccc(F)cc1C(=O)C1CCN(c2cc(-c3nnn(CC(=O)O)n3)on2)CC1 (stereo not shown) [drawing 71],< 20
5,COc1ccc(Cl)c(C(=O)C2CCN(c3cc(-c4nnn(CC(=O)O)n4)on3)CC2)c1,95
6,CCCc1ccc(Cl)cc1C(=O)C1CCN(c2cc(-c3nnn(CC(=O)O)n3)on2)CC1,23
7,O=C(O)Cn1nnc(-c2cnc(N3CCN(c4cc(C(F)(F)F)cc(C(F)(F)F)c4)CC3)nc2)n1,44
8,O=C(O)Cn1nnc(-c2cc(N3CCC(C(=O)c4ccccc4Br)CC3)no2)n1,28
9,Cc1ccc(F)cc1C(=O)C1CCN(c2cc(-c3nnn(CC(=O)O)n3)on2)CC1,20
10,O=C(O)Cn1nnc(-c2cc(N3CCC(C(=O)c4ccccc4OC(F)(F)F)CC3)no2)n1,66
11,O=C(O)Cn1nnc(-c2cnc(N3CCC(C(=O)c4cc(F)ccc4Cl)CC3)nc2)n1,46
12,O=C(O)Cn1nnc(-c2cnc(N3CC=C(c4ccccc4C(F)(F)F)CC3)s2)n1,< 20
13,O=C(O)Cn1nnc(-c2cc(N3CCN(c4cc(F)ccc4Cl)CC3)no2)n1,35
14,O=C(O)Cn1nnc(-c2cnc(N3CCC(C(=O)c4cc(Cl)ccc4Cl)CC3)nc2)n1,58
15,O=C(O)Cn1nnc(-c2cc(N3CCC(C(=O)c4cc(C(F)(F)F)ccc4Cl)CC3)no2)n1,22
16,O=C(O)Cn1nnc(-c2cnc(N3CCN(c4ccccc4C(F)(F)F)CC3)s2)n1,< 20
17,O=C(O)Cn1nnc(-c2cc(N3CCC(C(=O)c4cc(Cl)ccc4Br)CC3)no2)n1,< 20
18,O=C(O)Cn1nnc(-c2cc(N3CCC(C(=O)c4cc(F)ccc4Br)CC3)no2)n1,< 20
19,O=C(O)Cn1nnc(-c2cnc(N3CCN(c4cc(F)ccc4Cl)CC3)s2)n1,< 20
20,O=C(O)Cn1nnc(-c2cnc(N3C[C@@H]4C[C@H]3CN4c3cccc(Cl)c3)s2)n1,< 20
21,O=C(O)Cn1nnc(-c2cnc(N3CCC(C(=O)c4cc(OC(F)(F)F)ccc4Cl)CC3)nc2)n1,< 20
22,CCC(C)c1ccccc1C(=O)C1CCN(c2cc(-c3nnn(CC(=O)O)n3)on2)CC1 (stereo not shown),< 20
23,O=C(O)Cn1nnc(-c2cc(N3CCC(C(=O)c4cc(F)ccc4CC4CC4)CC3)no2)n1,< 20
24,COc1ccc(OC(F)(F)F)cc1C(=O)C1CCN(c2cc(-c3nnn(CC(=O)O)n3)on2)CC1,85
25,O=C(O)Cn1nnc(-c2cc(N3CCC(C(=O)c4cc(Cl)ccc4C(F)F)CC3)no2)n1,< 20
26,Cc1ccc(C(F)(F)F)cc1C(=O)C1CCN(c2cc(-c3nnn(CC(=O)O)n3)on2)CC1,48
27,O=C(O)Cn1nnc(-c2cnc(N3C[C@@H]4C[C@H]3CN4c3cc(F)ccc3Cl)s2)n1,< 20
28,O=C(O)Cn1nnc(-c2cnc(N3CCC(C(=O)c4ccccc4C(F)(F)F)CC3)s2)n1,< 20

row,Structure (SMILES),IC50 [nM]
1,O=C(O)Cn1nnc(-c2cc(N3CCC(C(=O)c4cc(F)ccc4Cl)CC3)no2)n1,< 20
2,O=C(O)Cn1nnc(-c2cc(N3CCC(C(=O)c4ccccc4C(F)(F)F)CC3)no2)n1,< 20
3,CC1(c2ccc(F)cc2C(=O)C2CCN(c3cc(-c4nnn(CC(=O)O)n4)on3)CC2)CC1,< 20
4,O=C(O)Cn1nnc(-c2cnc(N3CCN(c4cc(Cl)ccc4F)CC3)s2)n1,< 20
5,O=C(O)Cn1nnc(-c2cnc(N3CCC(C(=O)c4cc(F)ccc4C(F)(F)F)CC3)nc2)n1,27
6,CC1(c2ccccc2C(=O)C2CCN(c3cc(-c4nnn(CC(=O)O)n4)on3)CC2)CC1,< 20
7,CCC(C)c1ccc(F)cc1C(=O)C1CCN(c2cc(-c3nnn(CC(=O)O)n3)on2)CC1 (stereo not shown) [drawing 70],< 20
8,O=C(O)Cn1nnc(-c2cc(N3CCC(C(=O)c4cc(F)ccc4C(F)F)CC3)no2)n1,< 20
9,O=C(O)Cn1nnc(-c2cc(N3CCC(C(=O)c4cc(Cl)ccc4C(F)(F)F)CC3)no2)n1,32
10,CCc1ccc(Cl)cc1C(=O)C1CCN(c2cc(-c3nnn(CC(=O)O)n3)on2)CC1,< 20
11,O=C(O)Cn1nnc(-c2cc(N3CCN(c4cccc(C(F)(F)F)c4)CC3)no2)n1,83
12,CC(C)(F)c1ccccc1C(=O)C1CCN(c2cc(-c3nnn(CC(=O)O)n3)on2)CC1,< 20
13,O=C(O)Cn1nnc(-c2cnc(N3CCN(c4cccc(OC(F)(F)F)c4)CC3)s2)n1,< 20
14,O=C(O)Cn1nnc(-c2cc(N3CCC(C(=O)c4cc(F)ccc4C(F)(F)F)CC3)no2)n1,< 20
15,O=C(O)Cn1nnc(-c2cc(N3CCC(C(=O)c4cc(F)ccc4C4CC4)CC3)no2)n1,< 20
16,O=C(O)Cn1nnc(-c2cc(N3CCC(C(=O)c4cc(Br)ccc4Br)CC3)no2)n1,< 20
17,O=C(O)Cn1nnc(-c2cc(N3CCN(C(=O)c4cc(C(F)(F)F)ccc4Cl)CC3)no2)n1,24
18,O=C(O)Cn1nnc(-c2cc(N3CCN(C(=O)c4cccc(OC(F)(F)F)c4)CC3)no2)n1,< 20
19,O=C(O)Cn1nnc(-c2cc(N3CCC(C(=O)c4cc(F)ccc4C4CCC4)CC3)no2)n1,< 20
20,O=C(O)Cn1nnc(-c2cnc(N3CCCN(c4cc(F)ccc4Cl)CC3)s2)n1,29
21,O=C(O)Cn1nnc(-c2cc(N3CCC(C(=O)c4ccc(F)cc4Cl)CC3)no2)n1,50
22,O=C(O)Cn1nnc(-c2cc(N3CCC(C(=O)c4cc(C(F)(F)F)ccc4C(F)(F)F)CC3)no2)n1,< 20
23,Cc1ccc(Cl)cc1C(=O)C1CCN(c2cc(-c3nnn(CC(=O)O)n3)on2)CC1,28
24,CCc1ccc(F)cc1C(=O)C1CCN(c2cc(-c3nnn(CC(=O)O)n3)on2)CC1,< 20
25,O=C(O)Cn1nnc(-c2cnc(N3CCN(c4cc(C(F)(F)F)ccc4Cl)CC3)s2)n1,< 20
26,O=C(O)Cn1nnc(-c2cnc(N3CCC(c4cccc(C(F)(F)F)c4)CC3)s2)n1,< 20
27,O=C(O)Cn1nnc(-c2cc(N3CCC(C(=O)c4ccccc4OC(F)F)CC3)no2)n1,40
